Assay [1] concerns the target T1, Recombinant human glyoxalase I (Homo sapiens, UniProt Q04760).
T1 construct: made in house; host or cells: E. coli
T1 sequence (Q04760 2-184 limits assumed): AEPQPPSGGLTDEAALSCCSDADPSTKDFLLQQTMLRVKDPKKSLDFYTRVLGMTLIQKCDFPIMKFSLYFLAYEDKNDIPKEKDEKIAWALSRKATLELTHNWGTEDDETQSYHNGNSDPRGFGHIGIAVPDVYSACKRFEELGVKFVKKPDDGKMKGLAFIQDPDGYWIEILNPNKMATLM
As to the kind of experiment: Glyoxalase I inhibition assay (96-well kinetic spectrophotometric assay, 240 nm). The assay is classed as biochemical. The following applies: for inhibition at 20 µM: 20 μM compound, Vmax relative to control without inhibitor, pH 6.6, 25° C.; for IC50: concentration giving 50% of the vehicle control response. The source says: Glyoxalase I catalyses the formation of S-D-lactoylglutathione from the hemithioacetal that forms non-enzymatically from methylglyoxal and reduced glutathione (GSH). The standard literature assay is a cuvette-based spectrophotometric method using the product of glyoxalase I, S-D-lactoylglutathione, as the chromophore (240 nm) (Racker, J. Biol. Chem. 190, 685-686 (1951); Principato et al., Biochem International 6, 249-255 (1983)). This literature method was modified for use as a 96-well plate, kinetic assay.
The buffer (0.1M potassium phosphate buffer pH 6.6) and inhibitors are added to appropriate wells of a 96 well plate. Methylglyoxal (prepared in potassium phosphate buffer pH 6.6) and reduced glutathione (prepared in potassium phosphate buffer pH 6.6) are added to appropriate wells. These reagents are incubated for 15 minutes, shaking at room temperature to allow the formation of the hemithioacetal substrate of glyoxalase I. Recombinant human glyoxalase I (expressed in E. coli. and purified by S-hexylglutathione-agarose chromatography as described in Ridderstorm M. and Mannervik B., Biochem J. 314, 463-467 (1996)) is added and the plate is shaken briefly, before being placed in a Spectra Max 190 microplate spectrophotometer (Molecular Devices) at 25° C. Absorbance is monitored at 240 nm, with readings being taken every 30 seconds. The reaction is monitored for 15 minutes and PathCheck® measurements are taken on completion of the assay and the absorbance values normalized to a 1 cm pathlength. The integral software determines the Vmax using the first 20 readings. S-hexylglutathione is used as a positive control in the assays.
Data are expressed as a percentage of the control Vmax, measured in the absence of inhibitor.
Compounds iv, A, ix and E from examples 1 to 4 above respectively were subjected to the above glyoxalase I binding assay at a concentration of 20 μM (20 micromolar). Inhibitory effects are expressed in table 2 as either IC50 values, defined as the concentration, in μM, of the compound that results in 50% of the vehicle control response, or as the percentage of the vehicle control response at the highest concentration of compound tested.

Assay [2] relates to HL60 (human promyelocytic leukaemia) cells. As to the kind of experiment: HL60 cell assay (WST-1 growth inhibition). The following applies: for IC50: concentration giving 50% of the vehicle control response; for % proliferation inhibition in HL60s: highest concentration tested (range 20-1.25 μM), mean of six replicates. The assay is classed as cell-based. The protocol:
HL60 (human promyelocytic leukaemia) cells were seeded (50 μl/well) at a density between 0.25-0.4×10^5/ml in a 96 multi-well plate. Twenty four hours later 50 μl. of the relevant compound dilution made up in culture medium was added to the wells (final concentration range 20-1.25 μM in 0.1% DMSO). After incubating at 37° C. in a 5% CO2 atmosphere for a further 72 hours, assessment of growth inhibitory effects of compounds was measured using a colorimetric assay that is based on the cleavage of the tetrazolium salt WST-1 (Roche) by mitochondrial dehydrogenase in viable cells. WST-1 reagent (10 μl) was added to each well and the plate was agitated for 1 min. After a 3-4 hour incubation at 37° C. in a 5% CO2 incubator the absorbance at 450 nm was read spectrophotometrically, after subtraction of a reference wavelength absorbance, at […].
Compounds iv, ix and E from examples 1, 3 and 4 above respectively were subjected to the above cell assay. Results were the mean of six replicates and were expressed as the percentage of the DMSO vehicle control response. Inhibitory effects are expressed in table 3 in the form of either IC50 values, which was defined as the concentration (μM) of compound that results in 50% of the vehicle control response, or as the % of vehicle control response at the highest concentration of compound tested.
Background: Tetrazolium dyes change colour on reduction, which living cells bring about.

Where [3] appears, read: Homo sapiens, HL-60, 72 hours incubation.

A word on the inhibition: it is how much of the control response was suppressed. What is called IC50 is the concentration at which inhibition is half-maximal.

As for `CCOC(=O)C(Sc1ccc(CN(O)C(=O)c2ccccc2)cc1)c1ccccc1` (stereo not shown) [iv, {4-[(Benzoyl-hydroxy-amino)-methyl]-phenylsulfanyl}-phenyl-acetic acid ethyl ester], the inhibition at 20 µM in assay [1] was 28.5%. Also, the IC50 in assay [2] (setting [3]) worked out at 8.3 µM. For the same compound, the “% proliferation inhibition in HL60s” value in assay [2] (72 hours incubation) worked out at 80%.
`O=C(CSc1ccccc1C(=O)O)c1ccc(-c2ccccc2)cc1` [Compound 3, 2-(2-Biphenyl-4-yl-2-oxo-ethylsulfanyl)-benzoic acid]: the inhibition at 20 µM in assay [1] is not below 30%.
As to `O=C(O)C(Sc1ccc(CN(O)C(=O)c2ccccc2)cc1)c1ccccc1` (stereo not shown) [A, {4-[(Benzoyl-hydroxy-amino)-methyl]-phenylsulfanyl)-phenyl-acetic acid], the IC50 in assay [1] was found to be 9.7 µM.
Turning to `CC(C)C(Sc1nc(-c2ccccc2)cc(-c2ccccc2)c1C#N)C(=O)O` (stereo not shown) [Compound 25], the inhibition at 20 µM in assay [1] is not below 30%.
Same read-out and setting: for `COc1ccc(-c2cc(-c3ccccc3)nc(SC(C(=O)O)c3ccccc3)c2C#N)cc1` (stereo not shown) [Compound 2] the value was not below 30%.
With `Cc1ccc(-c2cc(-c3ccccc3)c(C#N)c(SCC(=O)Nc3ccc(C(=O)O)cc3)n2)cc1` [Compound 9], the inhibition at 20 µM in assay [1] is not below 30%.
The same measure, in the same setting: the same measure for `COc1ccc(-c2cc(-c3cccs3)nc(SC(C(=O)O)c3ccccc3)c2C#N)cc1` (stereo not shown) [Compound 11]: not below 30%.
`O=C(O)c1ccccc1CSc1ccc(CN(O)C(=O)c2ccccc2)cc1` [E, 2-{4-[(Benzoyl-hydroxy-amino)-methyl]-phenylsulfanylmethyl}-benzoic acid]: the IC50 in assay [1] was in the range of 1.9 to 2.26 µM. For the same compound, the “% proliferation inhibition in HL60s” value in assay [2] (72 hours incubation) amounted to 4%.
In the case of `N#Cc1c(-c2ccccc2)cc(-c2cccs2)nc1SC(C(=O)O)c1ccccc1` (stereo not shown) [Compound 14], in assay [1], the inhibition at 20 µM was not below 30%.
On the same count and under the same terms, the same measure for `N#Cc1c(-c2cccs2)cc(-c2cccs2)nc1SC(C(=O)O)c1ccccc1` (stereo not shown) [Compound 13]: not below 30%; for `COc1ccc(-c2cc(-c3ccccc3)nc(SCc3ccccc3C(=O)O)c2C#N)cc1` [Compound 4]: not below 30%.
As to `CCOC(=O)c1ccccc1SCC(=O)c1ccc(-c2ccccc2)cc1` [ethyl ester of compound 3], in assay [2] (72 hours incubation), the IC50 stood at 7.5 µM and the “% proliferation inhibition in HL60s” value amounted to 72%.
Regarding `COC(=O)c1ccccc1CSc1ccc(CN(O)C(=O)c2ccccc2)cc1` [Compound ix, 2-{4-[(Benzoyl-hydroxy-amino)-methyl]-phenylsulfanylmethyl}-benzoic acid methyl ester], the inhibition at 20 µM in assay [1] stood at 0%. For the same compound, 15 µM corresponded to half-maximal inhibition in assay [2] (setting [3]) (IC50).
Regarding `N#Cc1c(-c2ccc(Cl)cc2)cc(-c2cccs2)nc1SC(C(=O)O)c1ccccc1` (stereo not shown) [Compound 1], in assay [1], the inhibition at 20 µM was not below 30%.
